Results reported in patent US12544373B2, “Treatment of cancer, inflammatory diseases and autoimmune diseases” (Usher III Initiative, Inc., priority 2020, dated 2026).
Like-named read-outs stand apart in the source and are kept apart here.

How the values were obtained:
Assay type in all cases: cell-based, human
[1] = tested on: CXF HCC-2998; test: CellTiter-Blue 2D monolayer assay (Example 1), colon; conditions: for Test/Control (%): 72 h
Method: (§1) Compound 85 was assessed in 10 human tumor cell lines (see Table 3) for anti-cancer activity in vitro using a CellTiter-Blue® based 2D monolayer assay.
(§2) CellTiter-Blue® Cell Viability Assay: Tumor cells were grown at 37° C. in a humidified atmosphere with 5% CO2 in RPMI medium, supplemented with 10% (v/v) fetal calf serum and 50 μg/ml gentamicin (140 μl/well). Cultures were incubated at 37° C. and 5% CO2 in a humidified atmosphere. After 24 hours, 10 μl of Compound 85 was added, and left on the cells for another 72 hours (incubation period). Compound 85 was tested at 5 concentrations (0.003 μM, 0.03 μM, 0.3 μM, 3 μM, and 30 μM) and serially diluted in DMSO, mixed with cell culture medium, and added to the assay plates by using a Tecan Freedom EVO 200 robotic platform. The DMSO concentration was kept constant at 0.3% yip across the assay plate. Every 96 well plate included six DMSO-treated control wells and Compound 85-treated wells in duplicate at 5 concentrations. Viability of cells was quantified using the CellTiter-Blue® cell viability assay (Promega G8081). After incubation of cells, the CellTiter-Blue® reagent was brought to ambient temperature. Next, 20 μl of CellTiter-Blue® reagent were added to each well. After incubation tier up to 4 hours, fluorescence (FU) was measured using the EnSpire® multimode plate reader (Perkin Elmer) ([…]).
(§3) Data Evaluation: Sigmoidal concentration-response curves were fitted to the data points (test-versus-control; T/C values) obtained for each tumor model using 4 parameter non-linear curve fit (Charles River DRS Datawarehouse Software). Drug effects are expressed in terms of the percentage of the fluorescence signal, obtained by comparison of the mean signal in the treated wells with the mean signal of the untreated controls (T/C-value [%]) (Table 4). IC50 and IC70 values were reported as relative and absolute IC50 and IC70 values (Table 5). The absolute IC50 and IC70 values reflect the concentration of Compound 85 that achieves T/C=50% and T/C=30%, respectively. The relative IC50 value is the concentration of Compound 85 that gives a response half way between the top and bottom plateau of the sigmoidal concentration-response curve (inflection point of the curve).

[2] = tested on: CXF LS 174T; test: as above; conditions: for Test/Control (%): 72 h
Method: as §1, §2, §3

[3] = tested on: OVXF 899; test: CellTiter-Blue Cell Viability Assay (Example 2), ovarian; conditions: for T/C %: 72 h
Text: (§4) The CellTiter-Blue® Cell Viability Assay was used to assess the viability of cells from various cancer cell lines, in the presence or absence of Compound 85 (at different concentrations). This assay provides a homogeneous, fluorometric method for estimating the number of viable cells present in multi-well plates. Viable cells retain the ability to reduce resazurin to resorufin, which is highly fluorescent. […] The fluorescence produced is proportional to the number of viable cells. There is a linear relationship between cell number and fluorescence.
(§5) Cancer cells (see Table 6) were harvested from exponential phase cultures, counted and plated in 96 well flat-bottom microtiter plates, at a cell density 6,000-20,000 cells/well, depending on the cell line's growth rate. The culture medium was supplemented with 10% (v/v) foetal calf serum and 50 μg/mL gentamicin (140 μL/well). Cultures were incubated at 37° C. and 5% CO2 in a humidified atmosphere.
(§6) Compound 85 was serially diluted in DMSO, and five Compound 85 concentrations in half-log increments were used: 0.03 μM, 0.09 μM, 0.30 μM, 1.0 μM, and 3.0 μM. After 24 h, 10 μL of Compound 85 (dissolved in DMSO) or control (DMSO) medium were added, in duplicates, and left on the cells for another 72 h. Compound 85 solutions were added to the assay plates using a Tecan Freedom EVO 200 robotic platform. The DMSO concentration was kept constant at 0.3% v/v across the assay plate.
(§7) After incubation of up to 72 hours, fluorescence (FU) was measured using the EnSpire® multimode plate reader (Perkin Elmer) (excitation λ=570 nm, emission λ=600 nm).
(§8) Cancer cell lines used: Compound 85's anti-cancer effect was tested in 20 human cancer-cell lines representing nine cancer types (Table 6).
(§9) The percentage of viable cells in the presence of Compound 85 (Test condition, T), at different concentrations, are presented in Table 7 and expressed as a percentage of the number of viable cells in the presence of DMSO without Compound 85 (Control condition, C).
(§10) The relative IC50 is determined as the Compound 85 concentration giving a response halfway between the maximum cell viability signal (i.e., a 100% cell viability, no Compound 85 response) and the minimal viability signal (i.e. maximum cell viability inhibition achieved by Compound 85), in a sigmoidal concentration-effect curve.
(§11) The absolute IC50 is determined as the concentration that is associated with a T/C ratio of 50%.

[4] = tested on: OVXF A2780; test: as above; conditions: for T/C %: 72 h
Text: as §4, §5, §6, §7, §8, §9, §10, §11

[5] = tested on: SXFS 1301; test: CellTiter-Blue Cell Viability Assay (Example 2), soft tissue sarcoma; conditions: for T/C %: 72 h
Text: as §4, §5, §6, §7, §8, §9, §10, §11

[6] = tested on: SXFS Hs 729; test: as above; conditions: for T/C %: 72 h
Text: as §4, §5, §6, §7, §8, §9, §10, §11

CC(C)(O)Cn1nc(-c2ccccc2)c2c(Cl)c(-c3ccccc3)nnc21 [Compound 85]
Rel. IC70 [1]: 1630 nM | Test/Control (%) ([1]; 0.003 μM): 97% | Test/Control (%) ([1]; 0.03 μM): 100% | Test/Control (%) ([1]; 0.3 μM): 90% | Test/Control (%) ([1]; 3 μM): 13% | Test/Control (%) ([1]; 30 μM): 1% | Abs. IC70 ([1]; T/C=30%): 1628 nM | IC50 ([1]; T/C=50%, read-out: Abs. IC50): 1020 nM | Bot. (%) ([1]; bottom plateau of curve): 1% | IC50 ([1]; read-out: Rel. IC50): 1030 nM | Top (%) ([1]; top plateau of curve): 99% | Rel. IC70 [2]: 328 nM | Test/Control (%) ([2]; 0.003 μM): 103% | Test/Control (%) ([2]; 0.03 μM): 101% | Test/Control (%) ([2]; 0.3 μM): 35% | Test/Control (%) ([2]; 3 μM): 4% | Test/Control (%) ([2]; 30 μM): 0% | Abs. IC70 ([2]; T/C=30%): 346 nM | IC50 ([2]; T/C=50%, read-out: Abs. IC50): 215 nM | Bot. (%) ([2]; bottom plateau of curve): 1% | IC50 ([2]; read-out: Rel. IC50): 204 nM | Top (%) ([2]; top plateau of curve): 103% | Absolute IC70 [3]: 418 nM | Relative IC70 [3]: 423 nM | T/C % ([3]; 0.03 μM): 98% | T/C % ([3]; 0.095 μM): 94% | T/C % ([3]; 0.3 μM): 65% | T/C % ([3]; 0.95 μM): 1% | T/C % ([3]; 3.0 μM): 0% | IC50 ([3]; read-out: Absolute IC50): 346 nM | IC50 ([3]; read-out: Relative IC50): 352 nM | Absolute IC70 [4]: 463 nM | Relative IC70 [4]: 463 nM | T/C % ([4]; 0.03 μM): 102% | T/C % ([4]; 0.095 μM): 96% | T/C % ([4]; 0.3 μM): 87% | T/C % ([4]; 0.95 μM): 0% | T/C % ([4]; 3.0 μM): 0% | IC50 ([4]; read-out: Absolute IC50): 405 nM | IC50 ([4]; read-out: Relative IC50): 406 nM | Absolute IC70 [5]: 570 nM | Relative IC70 [5]: 558 nM | T/C % ([5]; 0.03 μM): 105% | T/C % ([5]; 0.095 μM): 106% | T/C % ([5]; 0.3 μM): 102% | T/C % ([5]; 0.95 μM): 3% | T/C % ([5]; 3.0 μM): 2% | IC50 ([5]; read-out: Absolute IC50): 501 nM | IC50 ([5]; read-out: Relative IC50): 490 nM | Absolute IC70 [6]: 808 nM | Relative IC70 [6]: 789 nM | T/C % ([6]; 0.03 μM): 99% | T/C % ([6]; 0.095 μM): 99% | T/C % ([6]; 0.3 μM): 99% | T/C % ([6]; 0.95 μM): 13% | T/C % ([6]; 3.0 μM): 7% | IC50 ([6]; read-out: Absolute IC50): 733 nM | IC50 ([6]; read-out: Relative IC50): 724 nM
